From patent publication US10745408B2, “Biologically active taxane analogs and methods of treatment by oral administration” (Tapestry Pharmaceuticals, Inc., priority 2007, dated 2020)
Entries after “also recorded” stand apart in the source; their conditions may differ.

Columns and labels:
[1] = tested on: patients with advanced neoplasms; experiment: Phase 1 Study S-(1)-02 safety, tolerability and anti-neoplastic activity; assay type: in vivo, human
Excerpt: (§1) Both trials have enrolled patients with advanced solid tumors, non-Hodgkin's lymphoma or Hodgkin's lymphoma that have recurred or progressed following at least standard therapy; patients with malignancies for which there is no standard therapy; patients who are not candidates for standard therapy; or patients who have chosen not to pursue standard therapy. […] Study S-(1)-01 is currently being conducted in the United States. […] Study S-(1)-02 is currently being conducted in the United States and in Israel.
(§2) Treatment cohorts were expanded to 6 pts in the face of dose-limiting toxicity (DLT); pts could remain on study until the development of progressive disease or an intolerable adverse event. DLT was defined as Gr 4 heme toxicity lasting 7 days; febrile neutropenia, Gr 3 thrombocytopenia with bleeding, Gr 3 elevation of transaminases lasting 7 days or any other Gr 3/4 toxicity other than nausea or vomiting.

[2] = tested on: patients with advanced neoplasms; experiment: Phase 1 Study S-(1)-01 safety, tolerability and anti-neoplastic activity; assay type: in vivo, human
Excerpt: as §1
as §2, with “cohorts consisted of 3 pts and” for “cohorts”

KB = experiment: MTS proliferation assay, head/neck KB; assay type: cell-based; settings: Homo sapiens
Protocol: MTS Proliferation Assay (Promega)
Day 1: Cells were plated in appropriate growth medium at 5×10^3 per well in 100 ul in 96 well tissue culture plates, Falcon, one for each drug to be tested. Col 1 was blank; it contained no cells, just medium. The plates were incubated overnight at 37° C., 5% CO2 to allow attachment.
Day 2: Added 120 ul growth medium in wells of 96-well “dilution plates” (one for each drug) and let sit in 37° C. incubator for about 1 hr.
Thawed DMSO drug stocks (usually at 10 mM). Each drug was diluted 6 ul into a tube with 3 ml growth medium, to 20 μM.
Aspirated medium from col 12 of a dilution plate; added 200-300 ul of 20 uM drug to wells of col 12. Made serial dilution down this 96-well plate: for a […] dilution pattern, moved 60 ul from col 12 to col 11, mixed 4-5 times (using 8 place multi-pipettor), moved 60 ul to col 10, etc. stopping at col 3.
Moved 100 ul of medium+drug from dilution plate to a cell plate, i.e. col 1 from drug plate (blank=no cells) to col 1 of cell plate, etc. up to col 12. Col 2 contained cells with no drug. […]
Day 4 or 5: Terminated the assay 48 to 72 hrs after drug addition. […] When the color turned dark in control wells (col 2), and was still light in col 12, the absorbance at 490 nm was read on a plate reader; the results were used to calculate IC50.

C=C[C@H]1O[C@H]2C[C@H]3OC[C@@]3(OC(C)=O)[C@H]3[C@H](OC(=O)c4ccccc4)[C@]4(C(C)(C)O)CC(OC(=O)[C@H](O)C(CC(C)C)NC(=O)OC(C)(C)C)C(C)=C4[C@H](OC(C)=O)[C@H](O1)[C@]23C (stereo partly drawn) [S-(1)]
Dose limiting toxicity ([1]; 160 mg/m^2 every 21 days): no DLT was observed
Dose limiting toxicity ([1]; 185 mg/m^2 every 21 days): Grade 3 sensory neuropathy; also recorded: Gr 3 peripheral sensory neuropathy
anti-neoplastic activity ([1]; 1 pt with pancreatic cancer): confirmed response
Drug related adverse events ([1]; 56-185 mg/m^2 every 21 days): mucositis, vomiting, diarrhea, neutropenia, thrombocytopenia, myalgias and peripheral neuropathy
dose that can be safely administered ([1]; every 21 days, heavily pre-treated patients): 160 mg/m^2
Dose limiting toxicity ([2]; 185 mg/m^2, weekly x3, 28-day cycle): Grade 3 sensory neuropathy; also recorded: Grade 3 peripheral neuropathy
Drug related adverse events ([2]; 7-185 mg/m^2 weekly x3): nausea, vomiting, diarrhea, fatigue, anorexia, rash, anemia and peripheral neuropathy
anti-neoplastic activity ([2]; patient with pancreatic cancer): Anti-neoplastic activity was seen
dose that can be safely administered ([2]; weekly×3, heavily pre-treated patients): up to 185 mg/m^2
IC50 (KB): 9.4 nM
